According to patent US20110008463A1, “COMBINATIONS OF HYDROXYPYRION COMPOUNDS AND SILVER COMPOUNDS” (priority 2008, published 2011):

Columns and labels:
[1] = system: Ulocladium atrum; test: Poison Plate Assay (fungi, Glucose Agar); type: cell-based; conditions: Ulocladium atrum IMI214699a, ppm total active ingredient, 27° C., growth evaluated after two weeks, label = % (I-e) + % nano-silver
Experimental: (§1) Test models: • Fungi: to each well of a 24-well microtiter plate, 1000 μl of Glucose Agar (GA: 10 g glucose, 1.5 g K2HPO4, 2 g KH2PO4, 1 g (NH4)2SO4, 0.5 g MgSO4 and 12.5 g agar in 1 liter deionised water) containing the appropriate combination of the test compounds in one of the concentrations of a dose series is added. The nutrient medium is inoculated with the test fungi by adding a spore/mycelium suspension (10 μl) or a small piece of agar from the margin of an actively growing colony and incubated under dark at 27° C. with 70% relative humidity. The growth of the fungi is evaluated after two weeks. • Glucose agar is used here instead of PDA (Potato Dextrose Agar), as an alternative, poorer medium for the fungi, in order to increase the chances of detecting activity in compounds whose mode of action might be circumvented by fungi on a […]). Moreover, a richer organic medium has more potential to complex and inactivate antibacterial silver ions (Lasater et al. 1999, Weissbuch et al. 2002). • Bacteria : to each well of a 24-well microtiter plate, 1000 μL Tryptose Agar (TA, 20 g bacto tryptose agar, 5 g sodium chloride, 1 g bacto dextrose and 15 g agar in l liter deionised water), containing the test compounds in one of the concentrations of a dose series is added. […] Growth is evaluated after five days. […]

[2] = system: Chaetomium globosum; test: Poison Plate Assay (fungi, Glucose Agar); type: cell-based; conditions: Chaetomium globosum ATCC6205, ppm total active ingredient, 27° C., growth evaluated after two weeks, label = % (I-e) + % nano-silver
Experimental: as §1

`Cc1cc(CC(C)CC(C)(C)C)n(O)c(=O)c1.NCCO` (centres unmarked) [100 + 0, piroctone olamine] was tested, and the “MIC-values (minimum inhibitory concentration) in ppm” value [1] was 3.16 ppm and the “MIC-values (minimum inhibitory concentration) in ppm” value [2] was 3.16 ppm.
